Values of other authors as cited in patent EP4585059A1, “EFFERVESCENT POUCHED PRODUCT” (Nicoventures Trading Limited, priority 2024, dated 2025).

Conditions: Values obtained from PubChem or calculated

Row | Compound | log(P)*
1 | CC(C)[C@@H]1CC[C@@H](C)C[C@H]1OC(=O)CCC(=O)O [monomenthyl succinate] | 3
2 | isopropyl benzoic acid | 3.5
3 | ethyl benzoic acid | 2.9

Conditions: water / aqueous environment (e.g., saliva)

Row | Compound | solubility in water
4 | CC(/C=C/C=C(C)/C=C/C(=O)O)=C\C=C\C=C(C)\C=C\C=C(C)\C=C\C(=O)O (stereo in doubt) [norbixin, (2E,4E,6E,8E,10E,12E,14E,16E,18E)-4,8,13,17-tetramethylicosa-2,4,6,8,10,12,14,16,18-nonaenedioic acid] | water-soluble
5 | COC(=O)/C=C/C(C)=C\C=C\C(C)=C\C=C\C=C(C)\C=C\C=C(C)\C=C\C(=O)O [bixin, (2E,4E,6E,8E,10E,12E,14E,16Z,18E)-20-methoxy-4,8,13,17-tetramethyl-20-oxoicosa-2,4,6,8,10,12,14,16,18-nonaenoic acid] | insoluble in water
6 | C=C(C)[C@@H]1CCC(C)=C[C@H]1c1c(O)cc(CCCCC)cc1O [CBD, cannabidiol] | insoluble
